From patent publication US12054483B2, “Small molecule inhibitors of DYRK/CLK and uses thereof” (Arizona Board of Regents on Behalf of the University of …, priority 2018, dated 2024)
pKd: −log10 of the molar value.

The molecules below were run against DYRK1A (Homo sapiens, UniProt Q13627) (assay: Affinity testing of compounds with DYRK1A (KD)). Details: DYRK1A affinity key classes.
Format: binding

SMILES | pKd
Nc1cc(-c2ccn3ncc(-c4ccc(CN5CCOCC5)cc4)c3n2)ccn1 [Compound 112, 4-(3-(4-(morpholinomethyl)phenyl)pyrazolo[1,5-a]pyrimidin-5-yl)pyridin-2-amine] | 5.00 to 6.30
O=c1cc(-c2ccn3ncc(-c4ccc(CN5CCOCC5)cc4)c3n2)cc[nH]1 [Compound 113, 4-(3-(4-(morpholinomethyl)phenyl)pyrazolo[1,5-a]pyrimidin-5-yl)pyridin-2(1H)-one] | 5.00 to 6.30
Nc1cc(-c2ccn3ncc(-c4ccc(CN5CCOCC5)s4)c3n2)ccn1 [Compound 114, 4-(3-(5-(morpholinomethyl)thiophen-2-yl)pyrazolo[1,5-a]pyrimidin-5-yl)pyridin-2-amine] | 6.30 to 7.00
Cc1nc2ccc(-c3ccncc3)nc2n1-c1ccc(CO)cc1 [Compound 115, (4-(2-methyl-5-(pyridin-4-yl)-3H-imidazo[4,5-b]pyridin-3-yl)phenyl)methanol] | 7.00 to 9.30
CC(=O)N1CCN(Cc2ccc(-n3c(C)nc4ccc(-c5ccncc5)nc43)cc2)CC1 [Compound 116, 1-(4-(4-(2-methyl-5-(pyridin-4-yl)-3H-imidazo[4,5-b]pyridin-3-yl)benzyl)piperazin-1-yl)ethan-1-one] | 7.00 to 9.30
Cc1nc2ccc(-c3ccncc3)nc2n1-c1ccc(CN2[C@H](C)COC[C@@H]2C)cc1 [Compound 117, (3S,5R)-3,5-dimethyl-4-(4-(2-methyl-5-(pyridin-4-yl)-3H-imidazo[4,5-b]pyridin-3-yl)benzyl)morpholine] | 6.30 to 7.00
Cc1nc2ccc(-c3ccncc3)nc2n1-c1ccc(CN2C[C@H](C)O[C@@H](C)C2)cc1 [Compound 118, (2S,6S)-2,6-dimethyl-4-(4-(2-methyl-5-(pyridin-4-yl)-3H-imidazo[4,5-b]pyridin-3-yl)benzyl)morpholine] | 7.00 to 9.30
Cc1nc2ccc(-c3ccncc3)nc2n1-c1ccc(CN2C[C@@H](C)N(C)[C@@H](C)C2)cc1 [Compound 119, 2-methyl-5-(pyridin-4-yl)-3-(4-(((3R,5S)-3,4,5-trimethylpiperazin-1-yl)methyl)phenyl)-3H-imidazo[4,5-b]pyridine] | 7.00 to 9.30
Cc1nc2ccc(-c3ccncc3)nc2n1-c1ccc(CN2CCOC(C)(C)C2)cc1 [Compound 120, 2,2-dimethyl-4-(4-(2-methyl-5-(pyridin-4-yl)-3H-imidazo[4,5-b]pyridin-3-yl)benzyl)morpholine] | 7.00 to 9.30
Cc1nc2ccc(-c3ccncc3)nc2n1-c1ccc(CN2CCC3(COC3)C2)cc1 [Compound 121, 6-(4-(2-methyl-5-(pyridin-4-yl)-3H-imidazo[4,5-b]pyridin-3-yl)benzyl)-2-oxa-6-azaspiro[3.4]octane] | 7.00 to 9.30
Cc1nc2ccc(-c3ccncc3)nc2n1-c1ccc(CN2CC3CCC(C2)O3)cc1 [Compound 122, 3-(4-(2-methyl-5-(pyridin-4-yl)-3H-imidazo[4,5-b]pyridin-3-yl)benzyl)-8-oxa-3-azabicyclo[3.2.1]octane] | 7.00 to 9.30
Cc1nc2ccc(-c3ccncc3)nc2n1-c1ccc(CN2[C@@H]3COC[C@H]2CC(=O)C3)cc1 [Compound 123, (1R,5S)-9-(4-(2-methyl-5-(pyridin-4-yl)-3H-imidazo[4,5-b]pyridin-3-yl)benzyl)-3-oxa-9-azabicyclo[3.3.1]nonan-7-one] | 6.30 to 7.00
Cc1nc2ccc(-c3ccncc3)nc2n1-c1ccc(CN2C[C@@H]3C[C@@H]2CO3)cc1 [Compound 124, (1S,4R)-5-(4-(2-methyl-5-(pyridin-4-yl)-3H-imidazo[4,5-b]pyridin-3-yl)benzyl)-2-oxa-5-azabicyclo[2.2.1]heptane] | 7.00 to 9.30
Cc1nc2ccc(-c3ccncc3)nc2n1-c1ccc(CN2CCN(C)CC2)cc1 [Compound 125, 2-methyl-3-(4-((4-methylpiperazin-1-yl)methyl)phenyl)-5-(pyridin-4-yl)-3H-imidazo[4,5-b]pyridine] | 7.00 to 9.30
Cc1nc2ccc(-c3ccncc3)nc2n1-c1ccc(CN2CCS(=O)(=O)CC2)cc1 [Compound 126, 4-(4-(2-methyl-5-(pyridin-4-yl)-3H-imidazo[4,5-b]pyridin-3-yl)benzyl)thiomorpholine 1,1-dioxide] | 7.00 to 9.30
Cc1nc2ccc(-c3ccnc(N)c3)c(F)c2n1-c1ccc(N2CCOCC2)cc1 [Compound 127, 4-(7-fluoro-2-methyl-1-(4-morpholinophenyl)-1H-benzo[d]imidazol-6-yl)pyridin-2-amine] | 7.00 to 9.30
Cc1nc2ncc(-c3ccnc(N)c3)nc2n1-c1ccc(N2CCOCC2)cc1 [Compound 128, 4-(2-methyl-1-(4-morpholinophenyl)-1H-imidazo[4,5-b]pyrazin-6-yl)pyridin-2-amine] | 5.00 to 6.30
Cc1nc2ncc(-c3ccncc3)nc2n1-c1ccc(N2CCOCC2)cc1 [Compound 129, 4-(4-(2-methyl-6-(pyridin-4-yl)-1H-imidazo[4,5-b]pyrazin-1-yl)phenyl)morpholine] | 5.00 to 6.30
Cc1nc2ncc(-c3ccnc(N)c3)nc2n1-c1ccc2[nH]cnc2c1 [Compound 130, 4-(1-(1H-benzo[d]imidazol-5-yl)-2-methyl-1H-imidazo[4,5-b]pyrazin-6-yl)pyridin-2-amine] | 6.30 to 7.00
Cc1nc2ncc(-c3ccncc3)nc2n1-c1ccc2[nH]cnc2c1 [Compound 131, 1-(1H-benzo[d]imidazol-5-yl)-2-methyl-6-(pyridin-4-yl)-1H-imidazo[4,5-b]pyrazine] | 6.30 to 7.00

SMILES | pKd
Cc1nc2ccc(-c3ccncc3)nc2n1-c1ccc(N2CCN(C)CC2)cc1 [Compound 132, 2-methyl-3-(4-(4-methylpiperazin-1-yl)phenyl)-5-(pyridin-4-yl)-3H-imidazo[4,5-b]pyridine] | 7.00 to 9.30
Cc1nc2ccc(-c3ccncc3)nc2n1-c1ccc(CN2CCOCC2)nc1 [Compound 133, 4-((5-(2-methyl-5-(pyridin-4-yl)-3H-imidazo[4,5-b]pyridin-3-yl)pyridin-2-yl)methyl)morpholine] | 6.30 to 7.00
Cc1nc2ccc(-c3ccncc3)nc2n1-c1ccc(N2CCOCC2)cc1 [Compound 134, 4-(4-(2-methyl-5-(pyridin-4-yl)-3H-imidazo[4,5-b]pyridin-3-yl)phenyl)morpholine] | 6.30 to 7.00
Cc1nc2ccc(-c3ccncc3)nc2n1-c1ccc(N2CCN(C)CC2)c(F)c1 [Compound 135, 3-(3-fluoro-4-(4-methylpiperazin-1-yl)phenyl)-2-methyl-5-(pyridin-4-yl)-3H-imidazo[4,5-b]pyridine] | 7.00 to 9.30
Cc1nc2ccc(-c3ccncc3)nc2n1-c1ccc2[nH]ccc2c1 [Compound 136, 3-(1H-indol-5-yl)-2-methyl-5-(pyridin-4-yl)-3H-imidazo[4,5-b]pyridine] | 7.00 to 9.30
Cc1nc2ccc(-c3ccncc3)nc2n1-c1cnc2[nH]ccc2c1 [Compound 137, 2-methyl-5-(pyridin-4-yl)-3-(1H-pyrrolo[2,3-b]pyridin-5-yl)-3H-imidazo[4,5-b]pyridine] | 7.00 to 9.30
Cc1nc2cc(-n3c(C)nc4ccc(-c5ccncc5)nc43)ccc2[nH]1 [Compound 138, 2-methyl-3-(2-methyl-1H-benzo[d]imidazol-5-yl)-5-(pyridin-4-yl)-3H-imidazo[4,5-b]pyridine] | 7.00 to 9.30
Cc1c2cc(-n3c(C)nc4ccc(-c5ccncc5)nc43)ccc2nn1C [Compound 139, 3-(2,3-dimethyl-2H-indazol-5-yl)-2-methyl-5-(pyridin-4-yl)-3H-imidazo[4,5-b]pyridine] | 7.00 to 9.30
Cc1nc2ccc(-c3ccncc3)nc2n1-c1cccc(CN2CCOCC2)c1 [Compound 140, 4-(3-(2-methyl-5-(pyridin-4-yl)-3H-imidazo[4,5-b]pyridin-3-yl)benzyl)morpholine] | 7.00 to 9.30
Cc1nc2ccc(-c3ccncc3)nc2n1-c1ccc(Cl)cn1 [Compound 141, 3-(5-chloropyridin-2-yl)-2-methyl-5-(pyridin-4-yl)-3H-imidazo[4,5-b]pyridine] | 7.00 to 9.30
COc1cc(-n2c(C)nc3ccc(-c4ccncc4)nc32)ccc1CN1CCOCC1 [Compound 142, 4-(2-methoxy-4-(2-methyl-5-(pyridin-4-yl)-3H-imidazo[4,5-b]pyridin-3-yl)benzyl)morpholine] | 6.30 to 7.00
Cc1nc2ccc(-c3ccnc4[nH]ccc34)nc2n1-c1ccc(N2CCOCC2)c(F)c1 [Compound 143, 4-(2-fluoro-4-(2-methyl-5-(1H-pyrrolo[2,3-b]pyridin-4-yl)-3H-imidazo[4,5-b]pyridin-3-yl)phenyl)morpholine] | 7.00 to 9.30
Cc1nc2ccc(-c3ccnc(N)c3)nc2n1-c1ccc(N2CCOCC2)c(F)c1 [Compound 144, 4-(3-(3-fluoro-4-morpholinophenyl)-2-methyl-3H-imidazo[4,5-b]pyridin-5-yl)pyridin-2-amine] | 7.00 to 9.30
Cc1cc(-c2ccc3nc(C)n(-c4ccc(N5CCOCC5)c(F)c4)c3n2)ccn1 [Compound 145, 4-(2-fluoro-4-(2-methyl-5-(2-methylpyridin-4-yl)-3H-imidazo[4,5-b]pyridin-3-yl)phenyl)morpholine] | 7.00 to 9.30
Cc1nc2ccc(-c3cnn(C)c3)nc2n1-c1ccc(N2CCOCC2)c(F)c1 [Compound 146, 4-(2-fluoro-4-(2-methyl-5-(1-methyl-1H-pyrazol-4-yl)-3H-imidazo[4,5-b]pyridin-3-yl)phenyl)morpholine] | 7.00 to 9.30
Cc1nc2ccc(-c3cnn(C4CC4)c3)nc2n1-c1ccc(N2CCOCC2)c(F)c1 [Compound 147, 4-(4-(5-(1-cyclopropyl-1H-pyrazol-4-yl)-2-methyl-3H-imidazo[4,5-b]pyridin-3-yl)-2-fluorophenyl)morpholine] | 7.00 to 9.30
Cc1nc2ccc(-c3ccnc(N)c3)nc2n1-c1ccc(N2CCOCC2)cc1 [Compound 148, 4-(2-methyl-3-(4-morpholinophenyl)-3H-imidazo[4,5-b]pyridin-5-yl)pyridin-2-amine] | 7.00 to 9.30
Cc1nc2ccc(-c3ccnc(N)c3)nc2n1-c1ccc(CN2CCOCC2)nc1 [Compound 149, 4-(2-methyl-3-(6-(morpholinomethyl)pyridin-3-yl)-3H-imidazo[4,5-b]pyridin-5-yl)pyridin-2-amine] | 5.00 to 6.30
Cc1nc2ccc(-c3ccnc(N)c3)nc2n1-c1ccc2[nH]ccc2c1 [Compound 150, 4-(3-(1H-indol-5-yl)-2-methyl-3H-imidazo[4,5-b]pyridin-5-yl)pyridin-2-amine] | 7.00 to 9.30
